Paper PMC6769468, “Endogenous Neuropeptide Nocistatin Is a Direct Agonist of Acid-Sensing Ion Channels (ASIC1, ASIC2 and ASIC3)” (Biomolecules, 2019)
Ends that are not written are not given here.

Experiments:
rat ASIC1a = biological target: T1, rat ASIC1a (Rattus norvegicus, UniProt P55926); test: Inhibition of pH 5.5-induced ASIC1a current following rNS action; assay type: cell-based
T1 construct: expressed in transfected cells; host or cells: Xenopus laevis oocytes (injected)
T1 sequence (P55926 1-526): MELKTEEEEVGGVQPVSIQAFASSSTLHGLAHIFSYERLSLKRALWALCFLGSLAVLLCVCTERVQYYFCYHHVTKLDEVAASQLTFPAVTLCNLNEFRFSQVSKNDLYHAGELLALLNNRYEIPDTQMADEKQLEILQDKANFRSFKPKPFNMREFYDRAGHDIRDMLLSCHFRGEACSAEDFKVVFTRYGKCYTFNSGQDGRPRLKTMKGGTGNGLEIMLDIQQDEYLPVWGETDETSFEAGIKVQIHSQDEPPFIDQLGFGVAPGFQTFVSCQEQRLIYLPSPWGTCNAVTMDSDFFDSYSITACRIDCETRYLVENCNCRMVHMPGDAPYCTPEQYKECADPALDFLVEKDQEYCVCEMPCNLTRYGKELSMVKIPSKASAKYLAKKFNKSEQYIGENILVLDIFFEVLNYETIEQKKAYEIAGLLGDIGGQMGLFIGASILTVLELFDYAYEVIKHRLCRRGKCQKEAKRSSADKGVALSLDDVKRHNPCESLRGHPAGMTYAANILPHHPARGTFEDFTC
Description: (§1) Oocytes expressed rASIC1a, rASIC1b, rASIC2a, and rASIC3 homomeric channels were prepared as described. Injected oocytes were kept for two–three days at 19 °C and then for up to seven days at 15 °C in ND-96 medium supplemented with gentamycin (50 μg·mL^−1) and containing (in mM): 96 NaCl, 2 KCl, 1.8 CaCl2, 1 MgCl2, and 10 HEPES titrated to pH 7.4 with NaOH. Electrophysiological recordings were performed using the GeneClamp500 amplifier (Axon Instruments, Inverurie, UK) at a holding potential of -50 mV. The data were filtered at 20 Hz and digitized at 100 Hz using the L780 AD converter (L-Card, Moscow, Russia). Microelectrodes were filled with 3 M KCl. The external bath solution was ND-96 with pH adjusted to 7.4/7.8 (10 mM HEPES) /8.5 (10 mM Tris). Nocistatin containing solutions were freshly prepared and buffered each experimental day in ND-96 bath solution (pH 7.4/7.8/8.5). Proton-activated currents through ASIC channels were elicited by application of ND-96, in which 10 mM of HEPES was substituted with 10 mM MES at pH 5.5/ 10 mM acetic acid at pH 4.5. The whole-cell recording was performed if a response to the control pH stimulus was stable in at least two replicates. Nocistatin-activated currents were elicited by application of nocistatin containing solutions with various concentrations of the peptide.
(§2) Extracellular solutions were applied using a computer-controlled valve system with a flow rate of 1 mL/min. The oocyte chamber volume was 80 µL. The validity of the application system for studying ASIC channels expressed in oocytes was confirmed in experiments by application of a Cl-free solution (containing (in mM): 130 NMDG, 1 MgGluc2, 2 KGluc, 5 HEPES) (pH 7.4). Fast application of proton/peptide-activating solution was performed at a flow rate of 1 mL/sec (the change of the bath solution occurred within 100 ms), followed by PC controlled flow stopping (from 5 to 15 s).
(c) Generalized logistic differential equation (the four-parameter logistic nonlinear regression model or a Hill function) F3(x) = ((A1 – A2)/(1 + (x/x0)^nH)) + A2, where F3(x) is the response value at a given nocistatin concentration, x is the concentration of nocistatin; A1 is the control response value (fixed at 100%) or the minimum asymptote of the response when concentration = 0; A2 is the response value at maximal inhibition or the maximum asymptote or the stabilized response for an infinite concentration (% of control), x0 is the concentration at which 50% of the channels are expected to show the response (or the response halfway between the minimum response asymptote A1 and the maximum response asymptote A2) (IC50 value) and nH is the Hill coefficient (a level of cooperativity). The maximum amplitude (Imax) was calculated for each oocyte by individual fitting; the data were normalized to it, then the normalized data were averaged and fitted by the logistic equations F1(x) and F2(x).
(§3) All data are presented as mean ± SEM. The significance of normalized data differences was determined with a non-parametric Kruskal-Wallis ANOVA test with the significance level * p < 0.05 and ** p < 0.01; ns, non-significant.

rat ASIC2a = biological target: T2, rat ASIC2a (Rattus norvegicus, UniProt Q62962); test: Whole-cell current activation, rat ASIC2a in X. laevis oocytes; assay type: cell-based
T2 construct: expressed in transfected cells; host or cells: Xenopus laevis oocytes (injected)
T2 sequence (Q62962 1-512): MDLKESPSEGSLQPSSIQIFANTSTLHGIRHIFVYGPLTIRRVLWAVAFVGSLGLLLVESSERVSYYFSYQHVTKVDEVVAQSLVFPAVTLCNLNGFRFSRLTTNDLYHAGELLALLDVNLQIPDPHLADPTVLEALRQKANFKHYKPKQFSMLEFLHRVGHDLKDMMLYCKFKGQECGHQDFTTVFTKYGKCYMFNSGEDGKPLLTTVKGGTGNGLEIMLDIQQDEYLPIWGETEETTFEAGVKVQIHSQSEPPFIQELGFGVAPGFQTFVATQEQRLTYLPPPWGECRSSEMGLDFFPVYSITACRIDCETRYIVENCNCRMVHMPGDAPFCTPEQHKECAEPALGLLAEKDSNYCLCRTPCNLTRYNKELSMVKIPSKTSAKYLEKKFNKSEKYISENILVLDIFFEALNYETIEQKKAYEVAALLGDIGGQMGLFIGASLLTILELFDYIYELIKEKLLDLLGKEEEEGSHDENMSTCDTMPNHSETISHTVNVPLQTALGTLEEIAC
Description: as §1
Extracellular solutions were applied using a computer-controlled valve system with a flow rate of 1 mL/min. The oocyte chamber volume was 80 µL. The validity of the application system for studying ASIC channels expressed in oocytes was confirmed in experiments by application of a Cl-free solution (containing (in mM): 130 NMDG, 1 MgGluc2, 2 KGluc, 5 HEPES) (pH 7.4). […]
as §3

homomeric ASICs = test: Whole-cell current, homomeric ASICs in oocytes (all isoforms together); assay type: cell-based, rat
Description: as §1, §2

uninjected oocytes = test: Application to uninjected oocytes (negative control); assay type: cell-based, Xenopus laevis; details: 1 mM rNS
Description: as §1, with “peptide. […]” for “peptide.”

[1] = amplitude of pH 5.5-induced current, F3, n = 5
[2] = pH 5.5 stimulus after 0.125–0.5 mM nocistatin pretreatment, n = 5

For “MPRVRSVVQARDAEPEADAEPVADEADEVEQKQLQ [rNS]”, the “Reduction of the 1st versus the 2nd component of the current” value (rat ASIC1a; IC50 comparison) was “reduced the 1st component of the current twice as effectively”, the “nH of inhibition, 1st component” value (rat ASIC1a; [1]) was 3.5 ± 0.4 and the “nH of inhibition, 2nd component” value (rat ASIC1a; [1]) was 1.9 ± 0.2. The “nH, integral current inhibition” value (rat ASIC1a; integral of pH 5.5-induced current after nocistatin, F3) was 2.9 ± 0.4, the IC50 (rat ASIC1a; integral of pH 5.5-induced current after nocistatin, F3 (fitted much worse than amplitude)) was 150 ± 20 µM and the “Concentration at which nocistatin acts as an inhibitor” value (rat ASIC1a; low concentrations, Figure 2d and S2B) was no more than 0.2 mM. The “tmax1, 1st component of proton-induced current” value (rat ASIC1a; [2]) was 0.495 ± 0.085 s, the “tmax2, 2nd component of proton-induced current” value (rat ASIC1a; [2]) was 1.415 ± 0.112 s and the “tmax less than for acidification by” value (rat ASIC2a; 1 mM rNS vs acidification, faster) was ~ 37%. The “Maximal amplitude of peptide activation versus response to standard pH drop” value (rat ASIC2a; 1 mM rNS vs pH drop 7.4 to 5.5) was “eight times higher”, the “τdes (desensitization time constant)” value (rat ASIC2a; 1 mM rNS, conditioning pH 7.4, mean ± S.E. from 4–7 measurements) was 2.22 ± 0.16 s and the “Response to a pH drop after washing out the peptide” value (homomeric ASICs; after washout) was “completely restored after washing out the peptide”. For the same sequence, the “Response to rapid acidification after activation by the peptide” value (homomeric ASICs; pH drop after 1 mM rNS) was “did not respond further to rapid acidification after activation by the peptide”, the “Effect of application at resting pH 7.4” value (homomeric ASICs; resting pH 7.4, 1 mM rNS) was “causes rapidly activating inward currents in homomeric ASICs” and the “Effect on uninjected oocytes” value (uninjected oocytes) was “did not produce any effects on the uninjected oocytes”.
